For this assay, the target named is T1, Human MTAP (Homo sapiens, UniProt Q13126).
T1 construct: six-histidine tag (His6) (N); made in house; host or cells: E. coli BL21 DE3
T1 sequence (Q13126 1-283): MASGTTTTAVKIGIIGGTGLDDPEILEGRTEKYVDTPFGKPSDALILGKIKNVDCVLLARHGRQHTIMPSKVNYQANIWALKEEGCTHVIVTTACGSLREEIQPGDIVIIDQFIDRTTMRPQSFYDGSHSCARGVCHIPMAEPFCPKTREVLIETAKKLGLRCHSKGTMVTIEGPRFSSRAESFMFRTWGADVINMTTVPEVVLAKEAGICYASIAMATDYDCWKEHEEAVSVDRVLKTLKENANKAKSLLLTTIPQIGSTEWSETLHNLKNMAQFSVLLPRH
As to the kind of experiment: MTAP substrate assay, coupled spectrophotometric (adenine, xanthine oxidase). The class given is biochemical. The settings on record: 2 nM MTAP; for activity at 50 µM: 10 min, compound 50 uM, relative to MTA at 50 uM, read-out: MT-A—50: initial velocity as a percentage of the initial velocity with MTA as substrate; for MT-A—10: initial velocity as a percentage of the initial velocity with MTA as substrate: compound 10 uM, relative to MTA at 10 uM. In short, it runs like this: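 Detection was xanthine oxidase-coupled (0.8 units/ml), reading adenine-derived absorbance at 305 nm over 10 min in potassium phosphate/DTT buffer at 37° C, with N-His6 enzyme purified from E. coli.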

In the case of `Nc1ncnc2c1ncn2[C@@H]1O[C@H](CSc2nccc(-c3ccco3)n2)[C@@H](O)[C@H]1O` [2(G)(112), (2R, 3R, 4S, 5S)-2-(6-amino-9H-purin-9-yl)-5-({[4-(2-furyl)pyrimidin-2-yl]thio}methyl)tetrahydro-furan-3,4-diol], the activity at 50 µM amounted to 10% and the “MT-A—10: initial velocity as a percentage of the initial velocity with MTA as substrate” value amounted to 17%.

Turning to `Cn1c(SC[C@H]2O[C@@H](n3cnc4c(N)ncnc43)[C@H](O)[C@@H]2O)nc2ccccc21` [2(G)(113), (2R, 3R, 4S, 5S)-2-(6-amino-9H-purin-9-yl)-5-{[(1-methyl-1H-benzimidazol-2-yl)thio]-methyl}tetrahydro-furan-3,4-diol], the activity at 50 µM was 43% and the “MT-A—10: initial velocity as a percentage of the initial velocity with MTA as substrate” value is recorded as 48%.

For `CC(=O)NCCSC[C@H]1O[C@@H](n2cnc3c(N)ncnc32)[C@H](O)[C@@H]1O` [2(G)(114), N-[2-({[(2S, 3S, 4R, 5R)-5-(6-amino-9H-purin-9-yl)-3,4-dihydroxytetra-hydrofuran-2-yl]methyl}thio)ethyl]acetamide], the activity at 50 µM came out at 11% and the “MT-A—10: initial velocity as a percentage of the initial velocity with MTA as substrate” value turned out to be 29%.

`CSc1ccc(SC[C@H]2O[C@@H](n3cnc4c(N)ncnc43)[C@H](O)[C@@H]2O)cc1` [2(G)(115), (2R, 3R, 4S, 5S)-2-(6-amino-9H-purin-9-yl)-5-({[4-(methylthio)phenyl]-thio}methyl)tetrahydro-furan-3,4-diol]: the activity at 50 µM came out at 15% and the “MT-A—10: initial velocity as a percentage of the initial velocity with MTA as substrate” value was found to be 12%.

As to `Nc1ncnc2c1ncn2[C@@H]1O[C@H](CSc2ccccc2OC(F)(F)F)[C@@H](O)[C@H]1O` [2(G)(116), (2R, 3R, 4S, 5S)-2-(6-amino-9H-purin-9-yl)-5-({[2-(trifluoromethoxy)-phenyl]thio}methyl)tetra-hydrofuran-3,4-diol], the activity at 50 µM stood at 7% and the “MT-A—10: initial velocity as a percentage of the initial velocity with MTA as substrate” value is reported as 3%.

For the compound `Nc1ncnc2c1ncn2[C@@H]1O[C@H](CSc2ccccc2F)[C@@H](O)[C@H]1O` [2(G)(117), (2R, 3R, 4S, 5S)-2-(6-amino-9H-purin-9-yl)-5-{[(2-fluorophenyl)thio)-methyl}tetrahydrofuran-3,4-diol], the activity at 50 µM was 28% and the “MT-A—10: initial velocity as a percentage of the initial velocity with MTA as substrate” value stood at 25%.

In the case of `COc1ccc2[nH]c(SC[C@H]3O[C@@H](n4cnc5c(N)ncnc54)[C@H](O)[C@@H]3O)nc2c1` [2(G)(118), (2R, 3R, 4S, 5S)-2-(6-amino-9H-purin-9-yl)-5-{[(5-methoxy-1H-benzimidazol-2-yl)thio]methyl}tetrahydrofuran-3,4-diol], the activity at 50 µM was 2.5% and the “MT-A—10: initial velocity as a percentage of the initial velocity with MTA as substrate” value is reported as 2.5%.

Consider `Nc1ncnc2c1ncn2[C@@H]1O[C@H](CSc2nc3ccccc3[nH]2)[C@@H](O)[C@H]1O` [2(G)(119), (2R, 3R, 4S, 5S)-2-(6-amino-9H-purin-9-yl)-5-[(1H-benzimidazol-2-ylthio)methyl)tetrahydro-furan-3,4-diol], for which the activity at 50 µM is 26% and the “MT-A—10: initial velocity as a percentage of the initial velocity with MTA as substrate” value came to 12%.

For `Cn1ccnc1SC[C@H]1O[C@@H](n2cnc3c(N)ncnc32)[C@H](O)[C@@H]1O` [2(G)(120), (2R, 3R, 4S, 5S)-2-(6-amino-9H-purin-9-yl)-5-{[(1-methyl-1H-imidazol-2-yl)thio)methyl}tetra-hydrofuran-3,4-diol], the activity at 50 µM is 3% and the “MT-A—10: initial velocity as a percentage of the initial velocity with MTA as substrate” value was 1%.

`CCCCCCCCCSC[C@H]1O[C@@H](n2cnc3c(N)ncnc32)[C@H](O)[C@@H]1O` [2(G)(121), (2R, 3R, 4S, 5S)-2-(6-amino-9H-purin-9-yl)-5-[(nonylthio)methyl]tetra-hydrofuran-3,4-diol]: the activity at 50 µM was determined as 54.5% and the “MT-A—10: initial velocity as a percentage of the initial velocity with MTA as substrate” value was 64.5%.

With `Nc1ncnc2c1ncn2[C@@H]1O[C@H](CSc2nc3ccccc3o2)[C@@H](O)[C@H]1O` [2(G)(122), (2R, 3R, 4S, 5S)-2-(6-amino-9H-purin-9-yl)-5-[(1,3-benzoxazol-2-ylthio)-methyl]tetrahydrofuran-3,4-diol], the activity at 50 µM worked out at 37% and the “MT-A—10: initial velocity as a percentage of the initial velocity with MTA as substrate” value is 30.5%.

Regarding `Nc1ncnc2c1ncn2[C@@H]1O[C@H](CSC[C@@H]2NC(=O)NC2=O)[C@@H](O)[C@H]1O` [2(G)(123), (5R)-5-[({[(2S, 3S, 4R, 5R)-5-(6-amino-9H-purin-9-yl)-3,4-dihydroxytetra-hydrofuran-2-yl)methyl}thio)methyl]imidazo-lidine-2,4-dione], the activity at 50 µM turned out to be 22% and the “MT-A—10: initial velocity as a percentage of the initial velocity with MTA as substrate” value is 23%.

As to `Nc1ncnc2c1ncn2[C@@H]1O[C@H](CSCc2ccc(Cl)cc2)[C@@H](O)[C@H]1O` [2(G)(124), (2R, 3R, 4S, 5S)-2-(6-amino-9H-purin-9-yl)-5-[{(4-chlorobenzyl)thio]-methyl}tetrahydrofuran-3,4-diol], the activity at 50 µM was found to be 51% and the “MT-A—10: initial velocity as a percentage of the initial velocity with MTA as substrate” value was 47%.

As to `CCCCCCCSC[C@H]1O[C@@H](n2cnc3c(N)ncnc32)[C@H](O)[C@@H]1O` [2(G)(125), (2R, 3R, 4S, 5S)-2-(6-amino-9H-purin-9-yl)-5-[(heptylthio)methyl]-tetrahydrofuran-3,4-diol], the activity at 50 µM is 62.5% and the “MT-A—10: initial velocity as a percentage of the initial velocity with MTA as substrate” value was 101%.

Turning to `CCCCCCSC[C@H]1O[C@@H](n2cnc3c(N)ncnc32)[C@H](O)[C@@H]1O` [2(G)(126), (2R, 3R, 4S, 5S)-2-(6-amino-9H-purin-9-yl)-5-[(hexylthio)methyl]tetra-hydrofuran-3,4-diol], the activity at 50 µM is 67.5% and the “MT-A—10: initial velocity as a percentage of the initial velocity with MTA as substrate” value was 72%.

Regarding `Nc1ncnc2c1ncn2[C@@H]1O[C@H](CSCc2ccccc2F)[C@@H](O)[C@H]1O` [2(G)(127), (2R, 3R, 4S, 5S)-2-(6-amino-9H-purin-9-yl)-5-{[(2-fluorobenzyl)-thio]methyl}tetrahydro-furan-3,4-diol], the activity at 50 µM was 58.5% and the “MT-A—10: initial velocity as a percentage of the initial velocity with MTA as substrate” value came to 56%.

For the compound `Nc1ncnc2c1ncn2[C@@H]1O[C@H](CSc2ccc(Cl)c(Cl)c2)[C@@H](O)[C@H]1O` [2(G)(128), (2R, 3R, 4S, 5S)-2-(6-amino-9H-purin-9-yl)-5{[(3,4-dichlorophenyl)-thio]methyl}tetrahydro-furan-3,4-diol], the activity at 50 µM amounted to 10.5% and the “MT-A—10: initial velocity as a percentage of the initial velocity with MTA as substrate” value turned out to be 11%.

`CCCCCCCCCCSC[C@H]1O[C@@H](n2cnc3c(N)ncnc32)[C@H](O)[C@@H]1O` [2(G)(129), (2R, 3R, 4S, 5S)-2-(6-amino-9H-purin-9-yl)-5-[(decylthio)methyl]tetra-hydrofuran-3,4-diol]: the activity at 50 µM came to 41.5% and the “MT-A—10: initial velocity as a percentage of the initial velocity with MTA as substrate” value is on record as 46%.

In the case of `Nc1ncnc2c1ncn2[C@@H]1O[C@H](CSc2ccc(Cl)cc2Cl)[C@@H](O)[C@H]1O` [2(G)(130), (2R, 3R, 4S, 5S)-2-(6-amino-9H-purin-9-yl)-5-{[(2,4-dichlorophenyl)-thio]methyl}tetrahydro-furan-3,4-diol], the activity at 50 µM stood at 4.5% and the “MT-A—10: initial velocity as a percentage of the initial velocity with MTA as substrate” value is −2%.

As to `Nc1ncnc2c1ncn2[C@@H]1O[C@H](CSc2cc(Cl)cc(Cl)c2)[C@@H](O)[C@H]1O` [2(G)(131), (2R, 3R, 4S, 5S)-2-(6-amino-9H-purin-9-yl)-5-{[(3,5-dichlorophenyl)-thio]methyl}tetrahydro-furan-3,4-diol], the activity at 50 µM is 11% and the “MT-A—10: initial velocity as a percentage of the initial velocity with MTA as substrate” value was 11.5%.

As to `CCOC(=O)c1c[nH]c(SC[C@H]2O[C@@H](n3cnc4c(N)ncnc43)[C@H](O)[C@@H]2O)n1` [2(G)(132), Ethyl 2-({[(2S, 3S, 4R, 5R)-5-(6-amino-9H-purin-9-yl)-3,4-dihydroxytetra-hydrofuran-2-yl]methyl}thio)-1H-imidazole-4-carboxylate], the activity at 50 µM was 1.5% and the “MT-A—10: initial velocity as a percentage of the initial velocity with MTA as substrate” value is reported as 0%.

Take `CCCCOC(=O)CSC[C@H]1O[C@@H](n2cnc3c(N)ncnc32)[C@H](O)[C@@H]1O` [2(G)(133), Butyl ({[(2S, 3S, 4R, 5R)-5-(6-amino-9H-purin-9-yl)-3,4-dihydroxytetra-hydrofuran-2-yl]methyl}-thio)acetate]: the activity at 50 µM was 31.5% and the “MT-A—10: initial velocity as a percentage of the initial velocity with MTA as substrate” value was found to be 22.5%.

With `CCCCNCCSC[C@H]1O[C@@H](n2cnc3c(N)ncnc32)[C@H](O)[C@@H]1O` [2(G)(136), (2R, 3R, 4S, 5S)-2-(6-amino-9H-purin-9-yl)-5-({[2-(butylamino)-ethyl]thio}methyl)-tetrahydrofuran-3,4-diol], the activity at 50 µM amounted to 37.5% and the “MT-A—10: initial velocity as a percentage of the initial velocity with MTA as substrate” value was 18%.

Regarding `Cc1cc(C)c(CSC[C@H]2O[C@@H](n3cnc4c(N)ncnc43)[C@H](O)[C@@H]2O)c(C)c1` [2(G)(137), (2R, 3R, 4S, 5S)-2-(6-amino-9H-purin-9-yl)-5-{[(mesitylmethyl)thio]-methyl}tetrahydrofuran-3,4-diol], the activity at 50 µM is 2% and the “MT-A—10: initial velocity as a percentage of the initial velocity with MTA as substrate” value turned out to be 3.5%.

The values above are taken from patent US20040043959A1, “Combination therapies for treating methylthioadenosine phosphorylase deficient cells” (priority 2002, published 2004).
